Tests used:
morningglory = assay: Test B pre/postemergence morningglory; format: in vivo, Ipomoea hederacea
How it was run: (§1)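 Herbicidal effect was estimated by eye on a ten-point control scale after plants spent twelve to sixteen days in a greenhouse following soil or foliar treatment. Foliar sprays targeted plants at one to four leaves; all doses were formulated in a non-phytotoxic solvent with surfactant.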

rape = assay: Test B pre/postemergence rape; format: in vivo, Brassica napus
How it was run: as §1

smallflower flatsedge = assay: Test B flood test smallflower flatsedge; format: in vivo, Cyperus difformis; conditions: for Plant response rating, S. Flatsedge (0 to 10 scale, 0 is no effect, 10 is complete control) / S. Flatsedge plant response rating (0 to 10 scale, 0 is no effect, 10 is complete control): visual evaluation after twelve to sixteen days; for S. Flatsedge plant response rating (0 to 10 scale, 0 is no effect, 10 is complete control): under heading Pre-emergence
How it was run: (§2)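 Flood test on plants grown to the 2-leaf stage; treated plants kept in greenhouse twelve to sixteen days, then visually rated against controls on a 0 (no effect) to 10 (complete control) scale.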

bamyardgrass = assay: Test B flood test barnyardgrass; format: in vivo, Echinochloa crus-galli; conditions: for Plant response rating, Barnyardgrass (0 to 10 scale, 0 is no effect, 10 is complete control) / Barnyardgrass plant response rating (0 to 10 scale, 0 is no effect, 10 is complete control): visual evaluation after twelve to sixteen days; for Barnyardgrass plant response rating (0 to 10 scale, 0 is no effect, 10 is complete control): under heading Pre-emergence
How it was run: as §2

[1] = Postemergence, Rate 62 g/ha, scale 0 to 10, 0 is no effect, 10 is complete control
[2] = Postemergence, Rate 125 g/ha, scale of 0 to 10 where 0 is no effect and 10 is complete control
[3] = Postemergence, Rate 250 g/ha, scale of 0 to 10, 0 is no effect, 10 is complete control
[4] = Preemergence, Rate 62 g/ha, scale of 0 to 10 where 0 is no effect and 10 is complete control
[5] = Preemergence, Rate 125 g/ha, scale of 0 to 10 where 0 is no effect and 10 is complete control
[6] = Preemergence, Rate 250 g/ha, scale 0 to 10 (0 no effect, 10 complete control)
[7] = Preemergence, Rate 500 g/ha, scale of 0 to 10 where 0 is no effect and 10 is complete control
[8] = Rate 500 g/ha, Postemergence, scale 0 to 10, 0 is no effect, 10 is complete control
[9] = Rate 62 g/ha, flood test species, Pre-emergence
[10] = Rate 125 g/ha, flood test species
[11] = Rate 250 g/ha, Pre-emergence (flood test species), scale 0 to 10, 0 is no effect, 10 is complete control
[12] = Rate 500 g/ha, Pre-emergence section of Table B, 0 to 10 scale (0 no effect, 10 complete control)
[13] = Postemergence, Rate 500 g/ha, scale of 0 to 10 where 0 is no effect and 10 is complete control
[14] = Preemergence, Rate 62 g/ha, scale 0 to 10 (0 no effect, 10 complete control)
[15] = Preemergence, Rate 250 g/ha, scale of 0 to 10 where 0 is no effect and 10 is complete control
[16] = Rate 62 g/ha, Postemergence, scale of 0 to 10 where 0 is no effect and 10 is complete control
[17] = Rate 125 g/ha, Postemergence, scale 0 to 10
[18] = Rate 125 g/ha, Preemergence, scale of 0 to 10 where 0 is no effect and 10 is complete control
[19] = Rate 500 g/ha, Postemergence, scale 0 to 10, 0 no effect, 10 complete control
[20] = Rate 62 g/ha, headed Pre-emergence (flood test species), scale 0 to 10 (0 no effect, 10 complete control)
[21] = Rate 125 g/ha, Pre-emergence, flood test species, scale 0 to 10 where 0 is no effect and 10 is complete control
[22] = Rate 250 g/ha, Pre-emergence, flood-test species, scale 0 to 10, 0 is no effect, 10 is complete control
[23] = Rate 500 g/ha, Pre-emergence, flood test species, scale 0 to 10 (0 no effect, 10 complete control)
[24] = Postemergence, Rate 250 g/ha, scale 0 to 10, 0 no effect, 10 complete control
[25] = Preemergence, Rate 62 g/ha, scale 0 to 10, 0 is no effect, 10 is complete control
[26] = Preemergence, Rate 125 g/ha, scale 0 to 10 (0 no effect, 10 complete control)
[27] = Preemergence, Rate 500 g/ha, scale 0 (no effect) to 10 (complete control)
[28] = Rate 125 g/ha, Postemergence, scale 0 to 10, 0 no effect, 10 complete control
[29] = Rate 500 g/ha, Postemergence, 0 to 10 scale (0 no effect, 10 complete control)
[30] = Rate 125 g/ha, Postemergence section (flood test species), scale 0 to 10, 0 no effect, 10 complete control
[31] = flood test, listed under Postemergence, Rate 250 g/ha, scale 0 to 10, 0 no effect, 10 complete control
[32] = Postemergence, Rate 125 g/ha, scale 0 to 10, 0 is no effect, 10 is complete control
[33] = Postemergence, Rate 250 g/ha, scale 0 to 10, 0 is no effect, 10 is complete control

C=C(Cn1c(=O)on(C(=O)N(c2ccccc2)C(C)C)c1=O)C(C)C [Compound 649]
Plant response rating, Morningglory (morningglory; [1]): 4 | Morningglory plant response rating (morningglory; [2]): 7 | Morningglory plant response rating (morningglory; [3]): 7 | Morningglory plant response rating (morningglory; [4]): 0 | Morningglory plant response rating (morningglory; [5]): 0 | Plant response rating, Morningglory (morningglory; [6]): 0 | Plant response rating, Morningglory (morningglory; [7]): 0 | Morningglory plant response rating (morningglory; [8]): 8 | Plant response rating, Rape (rape; [1]): 0 | Rape plant response rating (rape; [2]): 0 | Rape plant response rating (rape; [4]): 0 | Rape plant response rating (rape; [5]): 0 | Plant response rating, Rape (rape; [6]): 0 | Plant response rating, Rape (rape; [7]): 0 | Rape plant response rating (rape; [8]): 0 | Plant response rating, S. Flatsedge (0 to 10 scale, 0 is no effect, 10 is complete control) (smallflower flatsedge; [9]): 0 | S. Flatsedge plant response rating (0 to 10 scale, 0 is no effect, 10 is complete control) (smallflower flatsedge; [10]): 0 | S. Flatsedge plant response rating (smallflower flatsedge; [11]): 0 | S. Flatsedge plant response rating (smallflower flatsedge; [12]): 0 | Plant response rating, Barnyardgrass (0 to 10 scale, 0 is no effect, 10 is complete control) (bamyardgrass; [9]): 0 | Barnyardgrass plant response rating (0 to 10 scale, 0 is no effect, 10 is complete control) (bamyardgrass; [10]): 0 | Barnyardgrass plant response rating (bamyardgrass; [11]): 0 | Barnyardgrass plant response rating (bamyardgrass; [12]): 2

CCOC(Cn1c(=O)on(C(=O)N(c2ccc(F)cc2F)C(C)C)c1=O)OCC [Compound 630]
Plant response rating, Morningglory (morningglory; [1]): 1 | Plant response rating, Morningglory (morningglory; [2]): 2 | Morningglory plant response rating (morningglory; [3]): 2 | Plant response rating, Morningglory (morningglory; [13]): 4 | Morningglory plant response rating (morningglory; [14]): 0 | Morningglory plant response rating (morningglory; [5]): 0 | Plant response rating, Morningglory (morningglory; [6]): 0 | Plant response rating, Morningglory (morningglory; [7]): 2 | Plant response rating, Rape (rape; [1]): 0 | Plant response rating, Rape (rape; [2]): 0 | Rape plant response rating (rape; [3]): 0 | Plant response rating, Rape (rape; [13]): 4 | Rape plant response rating (rape; [14]): 0 | Rape plant response rating (rape; [5]): 0 | Plant response rating, Rape (rape; [6]): 0 | Plant response rating, Rape (rape; [7]): 0 | Plant response rating, S. Flatsedge (0 to 10 scale, 0 is no effect, 10 is complete control) (smallflower flatsedge; [9]): 0 | S. Flatsedge plant response rating (0 to 10 scale, 0 is no effect, 10 is complete control) (smallflower flatsedge; [10]): 0 | S. Flatsedge plant response rating (smallflower flatsedge; [11]): 0 | S. Flatsedge plant response rating (smallflower flatsedge; [12]): 0 | Plant response rating, Barnyardgrass (0 to 10 scale, 0 is no effect, 10 is complete control) (bamyardgrass; [9]): 0 | Barnyardgrass plant response rating (0 to 10 scale, 0 is no effect, 10 is complete control) (bamyardgrass; [10]): 0 | Barnyardgrass plant response rating (bamyardgrass; [11]): 0 | Barnyardgrass plant response rating (bamyardgrass; [12]): 0

CCN(C(=O)n1oc(=O)n(C)c1=O)C1CCCCC1 [Compound 228]
Morningglory plant response rating (morningglory; [4]): 0 | Morningglory plant response rating (morningglory; [15]): 0 | Plant response rating, Morningglory (morningglory; [7]): 0 | Morningglory plant response rating (morningglory; [16]): 2 | Morningglory plant response rating (morningglory; [17]): 3 | Morningglory plant response rating (morningglory; [18]): 0 | Plant response rating (0 to 10; 0 is no effect, 10 is complete control), Morningglory (morningglory; Rate 250 g/ha, Postemergence): 3 | Morningglory plant response rating (morningglory; [19]): 9 | Rape plant response rating (rape; [4]): 0 | Rape plant response rating (rape; [15]): 0 | Plant response rating, Rape (rape; [7]): 0 | Rape plant response rating (rape; [16]): 0 | Rape plant response rating (rape; [17]): 0 | Rape plant response rating (rape; [18]): 0 | Plant response rating (0 to 10; 0 is no effect, 10 is complete control), Rape (rape; Rate 250 g/ha, Postemergence): 0 | Rape plant response rating (rape; [19]): 0 | S. Flatsedge plant response rating (smallflower flatsedge; [20]): 0 | S. Flatsedge plant response rating (smallflower flatsedge; [21]): 0 | S. Flatsedge plant response rating (smallflower flatsedge; [22]): 0 | S. Flatsedge plant response rating (smallflower flatsedge; [23]): 0 | Barnyardgrass plant response rating (bamyardgrass; [20]): 0 | Barnyardgrass plant response rating (bamyardgrass; [21]): 0 | Barnyardgrass plant response rating (bamyardgrass; [22]): 0 | Barnyardgrass plant response rating (bamyardgrass; [23]): 0

Cc1ccccc1-n1c(=O)on(C(=O)N(c2cc(OC(C)C)c(Cl)cc2Cl)C(C)C)c1=O [Compound 42]
Morningglory plant response rating (morningglory; [1]): 0 | Morningglory plant response rating (morningglory; [24]): 0 | Plant response rating, Morningglory (morningglory; [25]): 0 | Plant response rating, Morningglory (morningglory; [26]): 0 | Plant response rating, Morningglory (morningglory; [15]): 0 | Morningglory plant response rating (morningglory; [27]): 0 | Morningglory plant response rating (morningglory; [28]): 0 | Morningglory plant response rating (morningglory; [29]): 1 | Rape plant response rating (rape; [1]): 0 | Rape plant response rating (rape; [24]): 0 | Plant response rating, Rape (rape; [25]): 0 | Plant response rating, Rape (rape; [26]): 0 | Plant response rating, Rape (rape; [15]): 0 | Rape plant response rating (rape; [27]): 0 | Rape plant response rating (rape; [28]): 0 | Rape plant response rating (rape; [29]): 0 | S. Flatsedge plant response rating (smallflower flatsedge; [1]): 0 | S. Flatsedge plant response rating (smallflower flatsedge; [30]): 0 | S. Flatsedge plant response rating (smallflower flatsedge; [31]): 0 | Barnyardgrass plant response rating (bamyardgrass; [1]): 0 | Barnyardgrass plant response rating (bamyardgrass; [30]): 0 | Barnyardgrass plant response rating (bamyardgrass; Rate 500 g/ha, Postemergence section of Table B, 0 to 10 scale (0 no effect, 10 complete control)): 0 | Barnyardgrass plant response rating (bamyardgrass; [31]): 0

CC(C)N(C(=O)n1oc(=O)n(N2CCOCC2)c1=O)c1ccc(F)cc1F [Compound 384]
Plant response rating, Morningglory (morningglory; [32]): 0 | Plant response rating, Morningglory (morningglory; [33]): 0 | Plant response rating, Morningglory (morningglory; [14]): 0 | Morningglory plant response rating (0 to 10 scale) (morningglory; Preemergence, Rate 125 g/ha): 0 | Morningglory plant response rating (morningglory; [15]): 0 | Morningglory plant response rating (morningglory; [7]): 2 | Morningglory plant response rating (morningglory; [16]): 0 | Plant response rating, Morningglory (morningglory; [19]): 0 | Plant response rating, Rape (rape; [32]): 0 | Plant response rating, Rape (rape; [33]): 0 | Plant response rating, Rape (rape; [14]): 0 | Rape plant response rating (0 to 10 scale) (rape; Preemergence, Rate 125 g/ha): 0 | Rape plant response rating (rape; [15]): 0 | Rape plant response rating (rape; [7]): 0 | Rape plant response rating (rape; [16]): 0 | Plant response rating, S. Flatsedge (0 to 10 scale, 0 is no effect, 10 is complete control) (smallflower flatsedge; [9]): 0 | S. Flatsedge plant response rating (0 to 10 scale, 0 is no effect, 10 is complete control) (smallflower flatsedge; [10]): 0 | S. Flatsedge plant response rating (smallflower flatsedge; [22]): 0 | S. Flatsedge plant response rating (smallflower flatsedge; [23]): 0 | Plant response rating, Barnyardgrass (0 to 10 scale, 0 is no effect, 10 is complete control) (bamyardgrass; [9]): 0 | Barnyardgrass plant response rating (0 to 10 scale, 0 is no effect, 10 is complete control) (bamyardgrass; [10]): 0 | Barnyardgrass plant response rating (bamyardgrass; [22]): 0 | Barnyardgrass plant response rating (bamyardgrass; [23]): 0

CC(C)N(C(=O)n1oc(=O)n(CC(=O)C2CCC2)c1=O)c1ccc(F)cc1 [Compound 640]
Plant response rating, Morningglory (morningglory; [1]): 0 | Plant response rating, Morningglory (morningglory; [2]): 3 | Morningglory plant response rating (morningglory; [3]): 6 | Plant response rating, Morningglory (morningglory; [13]): 6 | Morningglory plant response rating (morningglory; [4]): 0 | Morningglory plant response rating (morningglory; [5]): 0 | Plant response rating, Morningglory (morningglory; [6]): 0 | Plant response rating, Morningglory (morningglory; [7]): 0 | Plant response rating, Rape (rape; [1]): 0 | Plant response rating, Rape (rape; [2]): 0 | Rape plant response rating (rape; [3]): 0 | Plant response rating, Rape (rape; [13]): 0 | Rape plant response rating (rape; [4]): 0 | Rape plant response rating (rape; [5]): 0 | Plant response rating, Rape (rape; [6]): 3 | Plant response rating, Rape (rape; [7]): 6 | Plant response rating, S. Flatsedge (0 to 10 scale, 0 is no effect, 10 is complete control) (smallflower flatsedge; [9]): 0 | S. Flatsedge plant response rating (0 to 10 scale, 0 is no effect, 10 is complete control) (smallflower flatsedge; [10]): 0 | S. Flatsedge plant response rating (smallflower flatsedge; [11]): 0 | S. Flatsedge plant response rating (smallflower flatsedge; [12]): 0 | Plant response rating, Barnyardgrass (0 to 10 scale, 0 is no effect, 10 is complete control) (bamyardgrass; [9]): 0 | Barnyardgrass plant response rating (0 to 10 scale, 0 is no effect, 10 is complete control) (bamyardgrass; [10]): 0 | Barnyardgrass plant response rating (bamyardgrass; [11]): 0 | Barnyardgrass plant response rating (bamyardgrass; [12]): 0

Source: patent publication US6737383B1, “Herbicidal oxadiazolidines” (priority 1999, dated 2004)
